# Assay results as given in article PMC9284491 (Nature Communications, 2022).
# Entries after “also recorded” stand apart in the source; their conditions may differ.
# Assay: Treatment-emergent adverse events (MedDRA, NCI-CTCAE v4.03), safety populations
# Format: in vivo, human
# Protocol: Overall safety in Parts A and B was assessed by tabulating TEAEs, coded using the Medical Dictionary for Regulatory Activities (MedDRA) version 22.1, and graded according to NCI-CTCAE v4.03 criteria. TEAEs were classified as related or unrelated to amcenestrant therapy based upon the local investigating physician’s clinical judgment. The safety population included all patients exposed to at least one dose of the study treatment. Results were analyzed using descriptive statistics.
smiles,measurement,setting,value
"O=C(O)c1ccc2c(c1)CCCC(c1ccc(Cl)cc1Cl)=C2c1ccc(O[C@H]2CCN(CCCF)C2)cc1 [amcenestrant, 6-(2,4-Dichlorophenyl)−5-[4-[(3S)−1-(3-fluoropropyl)pyrrolidin-3-yl]oxyphenyl]−8,9-dihydro-7H-benzo[7]annulene-2-carboxylic acid]","Headache, Treatment-related TEAEs, All Grades","Part B, 400 mg QD (N = 49)",0 n (%)
same,"Headache, Treatment-related TEAEs, Grade 1","Part B, 400 mg QD (N = 49)",0 n (%)
same,"Headache, Treatment-related TEAEs, Grade 2","Part B, 400 mg QD (N = 49)",0 n (%)
same,"Headache, Treatment-related TEAEs, Grade ≥3","Part B, 400 mg QD (N = 49)",0 n (%)
same,"Hot flush, TEAEs, All grades","Part B, 400 mg QD (N = 49)",7 (14.3) n (%)
same,"Hot flush, TEAEs, Grade 1","Part B, 400 mg QD (N = 49)",5 (10.2) n (%)
same,"Hot flush, TEAEs, Grade 2","Part B, 400 mg QD (N = 49)",2 (4.1) n (%)
same,"Hot flush, TEAEs, Grade ≥3","Part B, 400 mg QD (N = 49)",0 n (%)
same,"Hot flush, Treatment-related TEAEs, All Grades","Part B, 400 mg QD (N = 49)",5 (10.2) n (%)
same,"Hot flush, Treatment-related TEAEs, Grade 1","Part B, 400 mg QD (N = 49)",5 (10.2) n (%)
same,"Hot flush, Treatment-related TEAEs, Grade 2","Part B, 400 mg QD (N = 49)",0 n (%)
same,"Hot flush, Treatment-related TEAEs, Grade ≥3","Part B, 400 mg QD (N = 49)",0 n (%)
same,"Hypertension, TEAEs, All grades","Part B, 400 mg QD (N = 49)",4 (8.2) n (%)
same,"Hypertension, TEAEs, Grade 1","Part B, 400 mg QD (N = 49)",0 n (%)
same,"Hypertension, TEAEs, Grade 2","Part B, 400 mg QD (N = 49)",4 (8.2) n (%)
same,"Hypertension, TEAEs, Grade ≥3","Part B, 400 mg QD (N = 49)",0 n (%)
same,"Hypertension, Treatment-related TEAEs, All Grades","Part B, 400 mg QD (N = 49)",1 (2.0) n (%)
same,"Hypertension, Treatment-related TEAEs, Grade 1","Part B, 400 mg QD (N = 49)",0 n (%)
same,"Hypertension, Treatment-related TEAEs, Grade 2","Part B, 400 mg QD (N = 49)",1 (2.0) n (%)
same,"Hypertension, Treatment-related TEAEs, Grade ≥3","Part B, 400 mg QD (N = 49)",0 n (%)
same,"Nasopharyngitis, TEAEs, All grades","Part B, 400 mg QD (N = 49)",3 (6.1) n (%)
same,"Nasopharyngitis, TEAEs, Grade 1","Part B, 400 mg QD (N = 49)",3 (6.1) n (%)
same,"Nasopharyngitis, TEAEs, Grade 2","Part B, 400 mg QD (N = 49)",0 n (%)
same,"Nasopharyngitis, TEAEs, Grade ≥3","Part B, 400 mg QD (N = 49)",0 n (%)
same,"Nasopharyngitis, Treatment-related TEAEs, All Grades","Part B, 400 mg QD (N = 49)",0 n (%)
same,"Nasopharyngitis, Treatment-related TEAEs, Grade 1","Part B, 400 mg QD (N = 49)",0 n (%)
same,"Nasopharyngitis, Treatment-related TEAEs, Grade 2","Part B, 400 mg QD (N = 49)",0 n (%)
same,"Nasopharyngitis, Treatment-related TEAEs, Grade ≥3","Part B, 400 mg QD (N = 49)",0 n (%)
same,"Nausea, TEAEs, All grades","Part B, 400 mg QD (N = 49)",11 (22.4) n (%)
same,"Nausea, TEAEs, Grade 1","Part B, 400 mg QD (N = 49)",9 (18.4) n (%)
same,"Nausea, TEAEs, Grade 2","Part B, 400 mg QD (N = 49)",1 (2.0) n (%)
same,"Nausea, TEAEs, Grade ≥3","Part B, 400 mg QD (N = 49)",1 (2.0) n (%)
same,"Nausea, Treatment-related TEAEs, All Grades","Part B, 400 mg QD (N = 49)",2 (4.1) n (%)
same,"Nausea, Treatment-related TEAEs, Grade 1","Part B, 400 mg QD (N = 49)",2 (4.1) n (%)
same,"Nausea, Treatment-related TEAEs, Grade 2","Part B, 400 mg QD (N = 49)",0 n (%)
same,"Nausea, Treatment-related TEAEs, Grade ≥3","Part B, 400 mg QD (N = 49)",0 n (%)
same,"Pain in extremity, TEAEs, All grades","Part B, 400 mg QD (N = 49)",3 (6.1) n (%)
same,"Pain in extremity, TEAEs, Grade 1","Part B, 400 mg QD (N = 49)",2 (4.1) n (%)
same,"Pain in extremity, TEAEs, Grade 2","Part B, 400 mg QD (N = 49)",1 (2.0) n (%)
same,"Pain in extremity, Treatment-related TEAEs, All Grades","Part B, 400 mg QD (N = 49)",0 n (%)
same,"Pain in extremity, Treatment-related TEAEs, Grade 1","Part B, 400 mg QD (N = 49)",0 n (%)
same,"Pain in extremity, Treatment-related TEAEs, Grade 2","Part B, 400 mg QD (N = 49)",0 n (%)
same,"Pain in extremity, Treatment-related TEAEs, Grade ≥3","Part B, 400 mg QD (N = 49)",0 n (%)
same,"Paresthesia, TEAEs, All grades","Part B, 400 mg QD (N = 49)",3 (6.1) n (%)
same,"Paresthesia, TEAEs, Grade 1","Part B, 400 mg QD (N = 49)",3 (6.1) n (%)
same,"Paresthesia, TEAEs, Grade 2","Part B, 400 mg QD (N = 49)",0 n (%)
same,"Paresthesia, TEAEs, Grade ≥3","Part B, 400 mg QD (N = 49)",0 n (%)
same,"Paresthesia, Treatment-related TEAEs, All Grades","Part B, 400 mg QD (N = 49)",1 (2.0) n (%)
same,"Paresthesia, Treatment-related TEAEs, Grade 1","Part B, 400 mg QD (N = 49)",1 (2.0) n (%)
same,"Paresthesia, Treatment-related TEAEs, Grade 2","Part B, 400 mg QD (N = 49)",0 n (%)
same,"Paresthesia, Treatment-related TEAEs, Grade ≥3","Part B, 400 mg QD (N = 49)",0 n (%)
same,"Pyrexia, TEAEs, All grades","Part B, 400 mg QD (N = 49)",4 (8.2) n (%)
same,"Pyrexia, TEAEs, Grade 1","Part B, 400 mg QD (N = 49)",3 (6.1) n (%)
same,"Pyrexia, TEAEs, Grade 2","Part B, 400 mg QD (N = 49)",1 (2.0) n (%)
same,"Pyrexia, TEAEs, Grade ≥3","Part B, 400 mg QD (N = 49)",0 n (%)
same,"Pyrexia, Treatment-related TEAEs, All Grades","Part B, 400 mg QD (N = 49)",0 n (%)
same,"Pyrexia, Treatment-related TEAEs, Grade 1","Part B, 400 mg QD (N = 49)",0 n (%)
same,"Pyrexia, Treatment-related TEAEs, Grade 2","Part B, 400 mg QD (N = 49)",0 n (%)
same,"Pyrexia, Treatment-related TEAEs, Grade ≥3","Part B, 400 mg QD (N = 49)",0 n (%)
same,"Rhinitis allergic, TEAEs, All grades","Part B, 400 mg QD (N = 49)",3 (6.1) n (%)
same,"Rhinitis allergic, TEAEs, Grade 1","Part B, 400 mg QD (N = 49)",2 (4.1) n (%)
same,"Rhinitis allergic, TEAEs, Grade 2","Part B, 400 mg QD (N = 49)",1 (2.0) n (%)
same,"Rhinitis allergic, TEAEs, Grade ≥3","Part B, 400 mg QD (N = 49)",0 n (%)
same,"Rhinitis allergic, Treatment-related TEAEs, All Grades","Part B, 400 mg QD (N = 49)",0 n (%)
same,"Rhinitis allergic, Treatment-related TEAEs, Grade 1","Part B, 400 mg QD (N = 49)",0 n (%)
same,"Rhinitis allergic, Treatment-related TEAEs, Grade 2","Part B, 400 mg QD (N = 49)",0 n (%)
same,"Rhinitis allergic, Treatment-related TEAEs, Grade ≥3","Part B, 400 mg QD (N = 49)",0 n (%)
same,"Urinary tract infection, TEAEs, All grades","Part B, 400 mg QD (N = 49)",5 (10.2) n (%)
same,"Urinary tract infection, TEAEs, Grade 1","Part B, 400 mg QD (N = 49)",0 n (%)
same,"Urinary tract infection, TEAEs, Grade 2","Part B, 400 mg QD (N = 49)",5 (10.2) n (%)
same,"Urinary tract infection, TEAEs, Grade ≥3","Part B, 400 mg QD (N = 49)",0 n (%)
same,"Urinary tract infection, Treatment-related TEAEs, All Grades","Part B, 400 mg QD (N = 49)",1 (2.0) n (%)
same,"Urinary tract infection, Treatment-related TEAEs, Grade 1","Part B, 400 mg QD (N = 49)",0 n (%)
same,"Urinary tract infection, Treatment-related TEAEs, Grade 2","Part B, 400 mg QD (N = 49)",1 (2.0) n (%)
same,"Urinary tract infection, Treatment-related TEAEs, Grade ≥3","Part B, 400 mg QD (N = 49)",0 n (%)
same,"Vomiting, TEAEs, All grades","Part B, 400 mg QD (N = 49)",14 (28.6) n (%)
same,"Vomiting, TEAEs, Grade 1","Part B, 400 mg QD (N = 49)",10 (20.4) n (%)
same,"Vomiting, TEAEs, Grade 2","Part B, 400 mg QD (N = 49)",3 (6.1) n (%)
same,"Vomiting, TEAEs, Grade ≥3","Part B, 400 mg QD (N = 49)",1 (2.0) n (%)
same,"Vomiting, Treatment-related TEAEs, All Grades","Part B, 400 mg QD (N = 49)",4 (8.2) n (%)
same,"Vomiting, Treatment-related TEAEs, Grade 1","Part B, 400 mg QD (N = 49)",4 (8.2) n (%)
same,"Vomiting, Treatment-related TEAEs, Grade 2","Part B, 400 mg QD (N = 49)",0 n (%)
same,"Vomiting, Treatment-related TEAEs, Grade ≥3","Part B, 400 mg QD (N = 49)",0 n (%)
same,"treatment-related TEAE arthralgia, patients","Part B, 400 mg QD (n = 49)",8.2%
same,"treatment-related TEAE constipation, patients","Part B, 400 mg QD (n = 49)",6.1%
same,"treatment-related TEAE gastroesophageal reflux disease, patients","Part B, 400 mg QD (n = 49)",6.1%
same,"treatment-related TEAE hot flush, patients","Part B, 400 mg QD (n = 49)",10.2%
same,"treatment-related TEAE vomiting, patients","Part B, 400 mg QD (n = 49)",8.2%
same,patients with serious TEAEs,"Part B, 13/49",26.5%
same,patients with at least one Grade ≥3 TEAE,"Part B, 16/49, none considered related to amcenestrant",32.7%
same,cardiac non-treatment-related TEAE,"Part B, Grade 1 sinus bradycardia",One cardiac non-treatment-related TEAE was reported
same,Grade ≥3 treatment-related adverse events,Parts A and B,No Grade ≥3 treatment-related adverse events; also recorded: no treatment-related TEAEs of Grade ≥3 occurred
same,clinically significant cardiac or eye safety findings,Parts A and B,no clinically significant cardiac or eye safety findings were observed
